Target: T1, c-Met (Homo sapiens, UniProt P08581)
T1 construct: pY^1234pY^1235c-Met(1074-1366) kinase domain
Test: In vitro c-Met kinase assay (AlphaScreen), Test (c)
Format: biochemical
Details: read-out: IC50 versus c-Met tyrosine kinase
Experimental: The assay used AlphaScreen technology (Gray et al., Analytical Biochemistry, 2003, 313: 234-245) to determine the ability of test compounds to prevent the activation of c-Met, in which wild type activated c-Met phosphorylates a mutant form of c-Met lacking catalytic activity but retaining the ability to be phosphorylated on the activating residues.
Kinase activity assays were performed in 384-well low-volume white plates (Greiner, 784075) with a total volume of 12 μL in each well. Each kinase reaction contained 40 pg (100 pM) pY^1234pY^1235c-Met(1074-1366) kinase domain, 44 ng (100 nM) cMyc-[D1204N,R1208Q]c-Met(1069-1366)-biotin, 25 mM HEPES (pH7.4), 0.1 mM sodium orthovanadate, 1 mM DTT, 0.01% (v/v) Tween-20, 10 mM magnesium chloride, 0.1% BSA, 50 μM ATP.
Various concentrations of test compounds were each added in 6% (v/v) DMSO to yield a final assay DMSO concentration of 1% (v/v). […] Plates were read using an Envision (Perkin Elmer) with excitation at 680 nm, emission […]. […]

T1 sequence (P08581 1074-1366): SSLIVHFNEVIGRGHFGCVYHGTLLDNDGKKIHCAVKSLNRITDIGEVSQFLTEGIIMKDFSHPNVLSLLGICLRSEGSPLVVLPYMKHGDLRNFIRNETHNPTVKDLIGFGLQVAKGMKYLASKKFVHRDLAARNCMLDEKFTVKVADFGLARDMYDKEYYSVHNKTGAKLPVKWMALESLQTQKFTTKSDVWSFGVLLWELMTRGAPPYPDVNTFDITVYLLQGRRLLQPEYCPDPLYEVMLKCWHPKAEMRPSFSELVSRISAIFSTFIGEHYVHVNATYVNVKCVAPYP

Work on `CN1CCC(n2cc(-c3cnc(N)c(-c4nc5ccc(F)cc5o4)c3)cn2)CC1` [Example 7.2] yielded an IC50 of about 1950 nM.

Reference: patent US8017611B2, “Pyridine and pyrazine derivatives -083” (AstraZeneca AB, priority 2007, dated 2011)
